Laboratory results reported in patent publication US20020168685A1, “Covalent chemical inducers of protein dimerization and their uses in high throughput binding screens” (priority 2001, published 2002).

Legend:
[1] = system: S. cerevisiae strain FY250
Excerpt: The plasmids encoding the LexA- and B42-fusion proteins were introduced in all necessary combinations into S. cerevisiae strain FY250 containing a plasmid encoding the lacZ reporter plasmid.
All of these experiments have been done as plate assays. The toxicity of the ligand and receptor is judged simply by seeing if either induction of the receptor fusions or application of the ligand to the plate impairs cell growth.

GR fusion proteins = details: cited from earlier work

SMILES: C[C@@H]1C[C@H]2[C@@H]3CCC4=CC(=O)C=C[C@]4(C)[C@@]3(F)[C@@H](O)C[C@]2(C)[C@@]1(O)C(=O)CO [DEX, Dexamethasone]
- toxicity (impaired cell growth) [1]: neither DEX nor GR are toxic
- cell permeability (GR fusion proteins): cell permeable
- modification or breakdown in the cell (GR fusion proteins): not modified or broken down in the cell
